This note sets out measurements from PubChem BioAssay AID1259407 (Chemical Carcinogenesis Research Information System (CCRIS), 2018).

Each structure is given as a SMILES string. The source made the active and inactive calls. The rule behind the calls is not given here.

For the data set, the system named is CCRIS mutagenicity, Ames/micronucleus/aberration tests. As to the kind of experiment: CCRIS mutagenicity studies.
The mark [1] stands for this setting: Test System: AMES SALMONELLA TYPHIMURIUM, Strain/Indicator: TA98, Metabolic Activation: NONE, Method: PREINCUBATION
Setting [2] is: Test System: AMES SALMONELLA TYPHIMURIUM, Strain/Indicator: TA98, Metabolic Activation: NONE, Method: STANDARD PLATE.
[3] abbreviates: Test System: AMES SALMONELLA TYPHIMURIUM, Strain/Indicator: TA98, Metabolic Activation: RAT, LIVER, S-9, AROCLOR 1254, Method: STANDARD PLATE.
The mark [4] stands for this setting: Test System: AMES SALMONELLA TYPHIMURIUM, Strain/Indicator: TA100, Metabolic Activation: NONE, Method: PREINCUBATION
Setting [5] is: Test System: AMES SALMONELLA TYPHIMURIUM, Strain/Indicator: TA100, Metabolic Activation: NONE, Method: STANDARD PLATE.
Setting [6] is: Test System: AMES SALMONELLA TYPHIMURIUM, Strain/Indicator: TA100, Metabolic Activation: RAT, LIVER, S-9, AROCLOR 1254, Method: STANDARD PLATE.
Setting [7] is: Test System: AMES SALMONELLA TYPHIMURIUM, Strain/Indicator: TA1535, Metabolic Activation: RAT, LIVER, S-9, AROCLOR 1254, Method: STANDARD PLATE.
Where [8] appears, read: Test System: AMES SALMONELLA TYPHIMURIUM, Strain/Indicator: TA1537, Metabolic Activation: NONE, Method: STANDARD PLATE.
Where [9] appears, read: Test System: AMES SALMONELLA TYPHIMURIUM, Strain/Indicator: TA1537, Metabolic Activation: RAT, LIVER, S-9, AROCLOR 1254, Method: STANDARD PLATE.

With `ClC(Cl)Cl`, the mutagenic call (Test System: AMES SALMONELLA TYPHIMURIUM, Strain/Indicator: RSJ100, Metabolic Activation: NONE, Method: PREINCUBATION) is “inactive; negative”; the mutagenic call (Test System: AMES SALMONELLA TYPHIMURIUM, Strain/Indicator: RSJ100, Metabolic Activation: RAT LIVER S-9, Method: PREINCUBATION) is “inactive; negative”; the mutagenic call under setting [1] is “inactive; negative”; the mutagenic call under setting [2] was “active; positive”; the mutagenic call (Test System: AMES SALMONELLA TYPHIMURIUM, Strain/Indicator: TA98, Metabolic Activation: RAT LIVER S-9, Method: PREINCUBATION) is “inactive; negative”; the mutagenic call under setting [3] is “active; positive”. Also, the mutagenic call by setting is: (Test System: AMES SALMONELLA TYPHIMURIUM, Strain/Indicator: TA100, Metabolic Activation: NONE, Method: FLUCTUATION TEST) “inactive; negative”; under setting [4], “inactive; negative”; under setting [5], “active; positive”; (Test System: AMES SALMONELLA TYPHIMURIUM, Strain/Indicator: TA100, Metabolic Activation: RAT LIVER S-9, Method: PREINCUBATION) “inactive; negative”; (Test System: AMES SALMONELLA TYPHIMURIUM, Strain/Indicator: TA100, Metabolic Activation: RAT, LIVER, S-9, AROCLOR 1254, Method: FLUCTUATION TEST) “inactive; negative”; under setting [6], “active; positive”. Moreover, the mutagenic call by setting is: (Test System: AMES SALMONELLA TYPHIMURIUM, Strain/Indicator: TA1535 (GST-), Metabolic Activation: NONE, Method: STANDARD PLATE) “inactive; negative”; under setting [7], “active; positive”; under setting [8], “active; positive”; under setting [9], “active; positive”; (Test System: Ames Salmonella typhimurium, Strain/Indicator: TA98, Metabolic Activation: None, Method: Gas exposure method) “inactive; negative”; (Test System: Ames Salmonella typhimurium, Strain/Indicator: TA98, Metabolic Activation: Rat, Liver, S9, Sodium phenobarbital and 5,6-benzoflavone (10%), Method: Gas exposure method) “inactive; negative”. Besides, the mutagenic call is, setting by setting: (Test System: Ames Salmonella typhimurium, Strain/Indicator: TA100, Metabolic Activation: None, Method: Gas exposure method) “inactive; negative”; (Test System: Ames Salmonella typhimurium, Strain/Indicator: TA100, Metabolic Activation: Rat, Liver, S9, Sodium phenobarbital and 5,6-benzoflavone (10%), Method: Gas exposure method) “inactive; negative”; (Test System: Ames Salmonella typhimurium, Strain/Indicator: TA1535, Metabolic Activation: None, Method: Gas exposure method) “inactive; negative”; (Test System: Ames Salmonella typhimurium, Strain/Indicator: TA1535, Metabolic Activation: Rat, Liver, S9, Sodium phenobarbital and 5,6-benzoflavone (10%), Method: Gas exposure method) “inactive; negative”; (Test System: Ames Salmonella typhimurium, Strain/Indicator: TA1537, Metabolic Activation: None, Method: Gas exposure method) “inactive; negative”; (Test System: Ames Salmonella typhimurium, Strain/Indicator: TA1537, Metabolic Activation: Rat, Liver, S9, Sodium phenobarbital and 5,6-benzoflavone (10%), Method: Gas exposure method) “inactive; negative”. The mutagenic call is, setting by setting: (Test System: CHINESE HAMSTER V-79, Strain/Indicator: V-79/8-AZAGUANINE, Metabolic Activation: NONE, Method: SUSPENSION/PLATE) “active; positive”; (Test System: CHINESE HAMSTER V-79, Strain/Indicator: V-79/OUABAIN, Metabolic Activation: NONE, Method: SUSPENSION/PLATE) “inactive; negative”; (Test System: E. coli, Strain/Indicator: WP2/pKM101, Metabolic Activation: None, Method: Gas exposure method) “inactive; negative (two experimental trials)”; (Test System: E. coli, Strain/Indicator: WP2/pKM101, Metabolic Activation: Rat, Liver, S9, Sodium phenobarbital and 5,6-benzoflavone (10%) with glutathione, Method: Gas exposure method) “inactive; negative (two experimental trials)”; (Test System: E. coli, Strain/Indicator: WP2/pKM101, Metabolic Activation: Rat, Liver, S9, Sodium phenobarbital and 5,6-benzoflavone (10%) without glutathione, Method: Gas exposure method) “inactive; negative (two experimental trials)”; (Test System: E. coli, Strain/Indicator: WP2uvrA/pKM101, Metabolic Activation: None, Method: Gas exposure method) “inactive; negative”. Also, the mutagenic call by setting is: (Test System: E. coli, Strain/Indicator: WP2uvrA/pKM101, Metabolic Activation: Rat, Liver, S9, Sodium phenobarbital and 5,6-benzoflavone (10%), Method: Gas exposure method) “inactive; negative”; (Test System: E.COLI, Strain/Indicator: WP2UVRA/PKM101, Metabolic Activation: NONE, Method: GAS EXPOSURE) “inactive; negative”; (Test System: E.COLI, Strain/Indicator: WP2UVRA/PKM101, Metabolic Activation: RAT LIVER S-9, PHENOBARBITOL AND 5,6-BENZOFLAVONE, GLUTATHIONE-SUPPLEMENTED, Method: GAS EXPOSURE) “active; positive”; (Test System: E.COLI, Strain/Indicator: WP2UVRA/PKM101, Metabolic Activation: RAT LIVER S-9, PHENOBARBITOL AND 5,6-BENZOFLAVONE, Method: GAS EXPOSURE) “inactive; negative”; (Test System: MOUSE LYMPHOMA, Strain/Indicator: L5178Y (TK+/TK-), Metabolic Activation: NONE, Method: SUSPENSION/PLATE) “inactive; negative”; (Test System: MOUSE LYMPHOMA, Strain/Indicator: L5178Y (TK+/TK-), Metabolic Activation: RAT, LIVER, S-9, AROCLOR 1254, Method: SUSPENSION/PLATE) “active; positive”. For the setting “Test System: UDS MOUSE HEPATOCYTES, Strain/Indicator: THY INCORP, Metabolic Activation: NONE, Method: AUTORADIOGRAPHY”, the mutagenic call was “inactive; negative”.

`CC(O)CC(=O)Nc1ccc(O)cc1` (centres undefined): the mutagenic call is “inactive; negative” (Test System: AMES SALMONELLA TYPHIMURIUM, Strain/Indicator: TA100, Metabolic Activation: HAMSTER, LIVER, S-9, KANECHLOR 400, Method: PREINCUBATION) and “inactive; negative” under setting [4].

Turning to `COC(=O)c1oc(N(OC(C)=O)C(C)=O)c(-c2ccccc2)c1-c1ccccc1`, the mutagenic call was “inactive; negative” under setting [1]; “inactive; negative” (Test System: AMES SALMONELLA TYPHIMURIUM, Strain/Indicator: TA98, Metabolic Activation: RAT, LIVER, S-9, AROCLOR, Method: PREINCUBATION); “inactive; negative” under setting [4]; “inactive; negative” (Test System: AMES SALMONELLA TYPHIMURIUM, Strain/Indicator: TA100, Metabolic Activation: RAT, LIVER, S-9, AROCLOR, Method: PREINCUBATION).

With `O=[N+]([O-])c1ccccc1OS(=O)(=O)c1cccc2cccnc12`, the mutagenic call reads like this: under setting [2], “inactive; negative”; under setting [3], “active; positive”; under setting [5], “inactive; negative”; under setting [6], “active; positive”; (Test System: AMES SALMONELLA TYPHIMURIUM, Strain/Indicator: TA1535, Metabolic Activation: NONE, Method: STANDARD PLATE) “inactive; negative”; under setting [7], “inactive; negative”. Moreover, the mutagenic call is “inactive; negative” under setting [8] and “inactive; negative” under setting [9].

For the compound `O=[N+]([O-])c1cc2c3c(ccc4cc([N+](=O)[O-])cc(c43)CC2)c1`, the mutagenic call reads like this: (Test System: AMES SALMONELLA TYPHIMURIUM, Strain/Indicator: TA98(1,8-DNP6), Metabolic Activation: NONE, Method: STANDARD PLATE) “active; positive”; (Test System: AMES SALMONELLA TYPHIMURIUM, Strain/Indicator: TA98(NR), Metabolic Activation: NONE, Method: STANDARD PLATE) “active; positive”; under setting [2], “active; positive”.
